The values that follow come from patent US7314624B2 (priority 2001, dated 2008).

Holding throughout (type): cell-based
The test system of assay [1] is Influenza virus A/AA/6/60.
In assay [2] the test system is S. dysenteriae. The conditions noted are these: 15 minutes; bacteria alone 910,000 CFU; X8P 1/100 dilution; EDTA 50-25 μM.
Assay [3] deals with S. typhimurium.

With “4-(1,1,3,3-Tetramethylbutyl)phenvl-polyethylene glycol [TRITON X-100]”, in assay [1], the “inhibition of infectivity of influenza A virus” value was “only partially inhibited” and the “reduction of influenza A infection of MDCK cells” value is “completely ineffective”.

As to `O=C(O)CN(CCN(CC(=O)O)CC(=O)O)CC(=O)O` [EDTA, ethylenediamine-tetraacetic acid], the “bacterial count after treatment (CFU)” value was 320,000 CFU in assay [2] and 790,000 CFU in assay [3].
